Values of other authors as cited in patent publication US20030012825A1, “Metallized molecule therapies” (priority 2000, published 2003).

Assays:
[1] = in vivo
[2] = tested on: Maximal Electroshock-induced seizure; conditions: subcutaneously
Metrazol-induced seizure = conditions: subcutaneously
[3] = tested on: flow-mediated vasodilation; conditions: in vivo
[4] = in vivo; remark: listed apart in the source

COC1=C(OC)C(=O)C(C/C=C(\C)CC/C=C(\C)CC/C=C(\C)CC/C=C(\C)CC/C=C(\C)CC/C=C(\C)CC/C=C(\C)CC/C=C(\C)CC/C=C(\C)CCC=C(C)C)=C(C)C1=O [Coenzyme Q10]
EEG brain activity [1]: lowering of EEG

O=C(O)c1ccccc1[O-].O=C(O)c1ccccc1[O-].[Cu+2] [Cu(II) (salicylate) 2]
dose at which anticonvulsant activity is initiated, preventing the Maximal Electroshock-induced seizure [2]: 600 milligrams per kilogram of bodyweight
dose at which anticonvulsant activity is initiated, preventing the Metrazol-induced seizure (Metrazol-induced seizure): 100 milligrams per kilogram of bodyweight

[Cl][Cu][Cl] [copper chloride]
effect on flow-mediated vasodilation [3]: improve flow-mediated vasodilation

[Cu+] [copper ions]
effect on intracellular HIV replication (HIV): inhibit intracellular HIV replication

N[C@@H](Cc1ccc(O)cc1)C(=O)O [tyrosine]
ability to pass the blood-brain barrier [4]: unique ability of passing the blood-brain barrier
